Experimental data taken from ChEMBL document CHEMBL1201862, “PubChem BioAssay data set” (2004).
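Five compound concentrations were applied to cells in 96-well plates for 48 hours; endpoints were derived by simple linear interpolation of the resulting dose-response curve. The concentration for 50% growth inhibition is given as GI50.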 The source made the active and inactive calls. No stated cut-off is given here; in the data, active = GI50 up to about 1.1 µM and inactive = higher.

What was measured:
Experiment in all cases: NCI tumour cell line growth inhibition, 48 h
LOX IMVI = system: LOX IMVI
HCT-116 = system: HCT-116
UACC-62 = system: UACC-62
MDA-N = system: MDA-N
NCI-H226 = system: NCI-H226
786-0 = system: 786-0
EKVX = system: EKVX
CAKI-1 = system: CAKI-1
OVCAR-5 = system: OVCAR-5
SNB-19 = system: SNB-19
DU-145 = system: DU-145
SW-620 = system: SW-620
MOLT-4 = system: MOLT-4
ACHN = system: ACHN
SR = system: SR
A498 = system: A498
SN12C = system: SN12C
BT-549 = system: BT-549
SF-539 = system: SF-539
NCI-H522 = system: NCI-H522

Measured: GI50

Clc1ccc(-c2nn3c(COc4ccc(OCc5nnc6sc(-c7ccc(Cl)cc7)nn56)c(Cl)c4)nnc3s2)cc1
inactive: LOX IMVI 17.9 µM | HCT-116 24.8 µM | UACC-62 > 100 µM | MDA-N 22 µM | NCI-H226 74.5 µM | 786-0 13.7 µM | EKVX 27 µM | CAKI-1 21.6 µM | OVCAR-5 24.2 µM | SNB-19 14.6 µM | DU-145 37.5 µM | SW-620 24 µM | MOLT-4 20.5 µM | ACHN 44.2 µM | SR 19.1 µM | A498 32.7 µM | SN12C > 100 µM | BT-549 18.9 µM | SF-539 24 µM | NCI-H522 15.6 µM

C[C@@H]1CC[C@@]2(OC1)O[C@H]1[C@@H](O)[C@H]3[C@@H]4CC[C@H]5C[C@@H](O[C@@H]6O[C@H](CO)[C@H](O[C@@H]7O[C@H](CO)C(O)[C@H](O[C@@H]8OC[C@@H](O)[C@H](O)[C@H]8O)[C@H]7O[C@@H]7O[C@H](CO)[C@H](O)[C@H](O[C@@H]8O[C@H](CO)[C@@H](O)[C@H](O)[C@H]8O)[C@H]7O)[C@H](O)[C@H]6O)[C@H](O)C[C@]5(C)[C@H]4CC[C@]3(C)[C@H]1[C@@H]2C (stereo not given in full) [DIGITONIN]
inactive: LOX IMVI 3.42 µM | HCT-116 1.95 µM | UACC-62 4 µM | MDA-N 3.33 µM | NCI-H226 1.51 µM | 786-0 1.61 µM | EKVX 3.13 µM | CAKI-1 1.39 µM | OVCAR-5 2.07 µM | SNB-19 2.07 µM | DU-145 2.05 µM | SW-620 5.52 µM | MOLT-4 3.9 µM | ACHN 1.52 µM | SR 2.37 µM | A498 6.18 µM | SN12C 2.97 µM | BT-549 1.63 µM | SF-539 2.98 µM | NCI-H522 2.06 µM

COc1c2c(cc3oc(C)cc(=O)c13)OC(=N)C(C(N)=O)C2CC(=O)c1ccc(N)cc1 (stereo not given)
inactive: LOX IMVI > 100 µM | HCT-116 > 100 µM | UACC-62 > 100 µM | MDA-N > 100 µM | NCI-H226 > 100 µM | 786-0 > 100 µM | EKVX > 100 µM | CAKI-1 > 100 µM | OVCAR-5 > 100 µM | SNB-19 > 100 µM | DU-145 > 100 µM | SW-620 > 100 µM | MOLT-4 > 100 µM | ACHN > 100 µM | SR > 100 µM | A498 > 100 µM | SN12C > 100 µM | BT-549 > 100 µM | SF-539 > 100 µM | NCI-H522 > 100 µM

Cc1nc(O)nc2nc3ccc(Cl)cc3c(NC(C)(CO)CO)c12
inactive: LOX IMVI 55.6 µM | HCT-116 26.7 µM | UACC-62 > 75.3 µM | MDA-N 99.1 µM | NCI-H226 > 84.5 µM | 786-0 > 57.4 µM | EKVX 24.9 µM | CAKI-1 13.9 µM | OVCAR-5 > 100 µM | SNB-19 45.2 µM | DU-145 > 70.1 µM | SW-620 > 100 µM | MOLT-4 > 40.8 µM | ACHN 39 µM | SR 99.8 µM | A498 > 100 µM | SN12C > 100 µM | BT-549 62.8 µM | SF-539 > 50.6 µM | NCI-H522 24.2 µM

C[Si](C)(c1ccccc1)[C@H]1CCCC=C1CCNC1c2ccccc2CCc2ccccc21
inactive: LOX IMVI 70.6 µM | HCT-116 48.3 µM | UACC-62 61.4 µM | MDA-N 70.5 µM | NCI-H226 > 100 µM | 786-0 > 100 µM | EKVX 29.4 µM | CAKI-1 73.5 µM | OVCAR-5 > 100 µM | SNB-19 > 100 µM | DU-145 > 100 µM | SW-620 > 100 µM | MOLT-4 30 µM | ACHN 67.5 µM | SR 36.6 µM | A498 69.2 µM | SN12C > 100 µM | BT-549 > 100 µM | SF-539 > 100 µM | NCI-H522 50.8 µM

O=C1c2ccccc2S(=O)(=O)c2cc(-c3nn[nH]n3)ccc21 [DOXANTRAZOLE]
inactive: LOX IMVI > 100 µM | HCT-116 > 100 µM | UACC-62 > 100 µM | MDA-N > 100 µM | NCI-H226 > 100 µM | 786-0 > 100 µM | EKVX > 100 µM | CAKI-1 > 87.3 µM | OVCAR-5 > 100 µM | SNB-19 > 100 µM | DU-145 > 100 µM | SW-620 > 100 µM | MOLT-4 > 100 µM | ACHN > 100 µM | SR > 100 µM | A498 > 100 µM | SN12C > 100 µM | BT-549 > 100 µM | SF-539 > 100 µM | NCI-H522 > 100 µM

O=C(Nc1noc(-c2ccccc2)n1)c1ccccc1CNc1noc(-c2ccccc2)n1
inactive: LOX IMVI > 100 µM | HCT-116 > 100 µM | UACC-62 > 100 µM | MDA-N > 100 µM | NCI-H226 > 100 µM | 786-0 > 100 µM | EKVX 76.7 µM | CAKI-1 > 100 µM | OVCAR-5 > 100 µM | SNB-19 > 100 µM | DU-145 > 100 µM | SW-620 > 100 µM | MOLT-4 > 100 µM | ACHN > 100 µM | SR > 100 µM | A498 > 100 µM | SN12C > 100 µM | BT-549 > 100 µM | SF-539 > 100 µM | NCI-H522 > 100 µM

C/C(=N\NC(N)=O)C(CN(C)C)C(c1ccccc1)c1c(O)c2ccccc2oc1=O (stereo not given)
inactive: LOX IMVI > 100 µM | HCT-116 > 100 µM | UACC-62 > 100 µM | MDA-N > 100 µM | NCI-H226 > 100 µM | 786-0 > 100 µM | EKVX > 100 µM | CAKI-1 > 100 µM | OVCAR-5 > 100 µM | SNB-19 > 100 µM | DU-145 > 100 µM | SW-620 > 100 µM | MOLT-4 71.9 µM | ACHN > 100 µM | SR > 100 µM | A498 > 100 µM | SN12C > 100 µM | BT-549 > 100 µM | SF-539 > 100 µM | NCI-H522 > 100 µM

C=C(Cl)C(C)(Cl)CCC(Cl)C(C)C (stereo not given)
inactive: LOX IMVI 15.3 µM | HCT-116 > 100 µM | UACC-62 > 100 µM | MDA-N 43.2 µM | NCI-H226 > 100 µM | 786-0 > 100 µM | EKVX > 100 µM | CAKI-1 > 100 µM | OVCAR-5 > 100 µM | SNB-19 > 100 µM | DU-145 > 100 µM | SW-620 99.5 µM | MOLT-4 36.7 µM | ACHN > 100 µM | SR 24.8 µM | A498 > 100 µM | SN12C > 100 µM | BT-549 > 100 µM | SF-539 > 100 µM | NCI-H522 37 µM
